Data taken from patent US4281009A, “Hydantoin derivatives” (Nippon Zoki Pharmaceutical Co., Ltd., priority 1978, dated 1981).

Assays:
[1] = Acute toxicity test (LD50, Litchfield-Wilcoxon), mice; details: mouse, in vivo, ip, intraperitoneal
Method: (§1) Toxicity tests were carried out by intraperitoneal administration of the compound of the present invention to groups each comprising 10 ICR-strain mice and SD-strain rats. LD50 was calculated by the Litchfield-Wilcoxon method based on the number of death 72 hours after the administration.

[2] = Acute toxicity test (LD50, Litchfield-Wilcoxon), rats; details: rat, in vivo, ip, intraperitoneal
Method: as §1

SART stress mice = experiment: Inhibitory effects on increase of heart rate and elongation of QRS-time in SART stress mice; type: in vivo, mice (dd-strain male); details: 9th day, Average ± S.D.
Method: (§2) SART stress animals used in the tests described below were raised according to a method of Kita, et al. [Folia Pharmacol. Japan.: 71, 195-210 (1975)].
2. Inhibitory effects on increase of heart rate and elongation of QRS-time in stress animals:
Groups of mice each comprising 11 or 12 dd-strain male mice were divided into three groups in the same manner as above and heart rate and QRS-time were determined on the 9th day after initiation of the tests.

isolated duodenum = experiment: Recovery of acetylcholine sensitivity of isolated duodenum of SART stress mice (Magnus method); type: in vivo, mice (dd-strain male); details: 6th day, Ach 10^-7 g/ml, Average ± S.E.
From the text: as §2
3. Effect of recovering acetylcholine (Ach) sensitivity of isolated intestinal tract:
Groups each comprising at least 10 dd-strain male mice were used. The compounds of the present invention or other comparative drugs were given intraperitoneally once a day during the stress-causing operation. On the 6th day, Ach (10^-7 g/ml.) sensitivity of isolated duodenum was examined using the Magnus method.

dd-strain male mice [3] = experiment: Inhibitory effect on spontaneous motor activities (Animex method); type: in vivo; details: after 60 minutes
Method: 4.1 Inhibitory effect on spontaneous motor activities:
Groups each comprising 8-16 dd-strain male mice were used. The compounds of the present invention were given intraperitoneally. After 60 minutes, spontaneous motor activities for 15 minutes were measured by the Animex method.

dd-strain male mice [4] = experiment: Inhibitory effect on exploratory movements; type: in vivo; details: after 60 minutes
Method: 4.2. Inhibitory effect on exploratory movements:
Groups each comprising 16-35 dd-strain male mice were used. The compounds of the present invention were given intraperitoneally. After 60 minutes, exploratory movements for 15 minutes were measured with an exploratory movement recorder by a method of Tokyo Kyoiku University.

[5] = tested on: normal mice and SART stress mice; experiment: Analgesic effect, tail pressure method (Randall-Selitto's device); type: in vivo, mice (ddY-strain male); details: for change in vivo at 100 mg/kg / change in vivo at 160 mg/kg: Mus musculus; for change in vivo at 160 mg/kg: peroral 160 mg/kg
In short: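 Randall-Selitto tail pressure threshold measured 60 min after intraperitoneal dosing, expressed as post/pre-dose pressure ratio versus vehicle control (0.5% CMC-Na or 0.5% Tween 80, 10 ml/kg). For oral dosing, mean of readings at 30, 60, 90 and 120 min used.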

[6] = tested on: normal mice and SART stress mice; experiment: Analgesic effect, acetic acid writhing method; type: in vivo; details: Mus musculus, sc, 100 mg/Kg subcutaneously
In short: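 Normal mice and mice after 8 days of SART stress (5 per group) received 100 mg/Kg compound subcutaneously. Writhing was then induced with 0.7% acetic acid in isotonic saline, 0.1 ml/10 g i.p. Writhes were counted over 15 minutes and compared with control mice.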

dd-strain male mice [7] = experiment: Antiulcerogenic effect on Takagi's restraint-plus-water-immersing ulcer; type: in vivo; details: Mus musculus, ip; for inhibition in vivo at 125 mg/kg: 125 mg/kg intraperitoneal; for inhibition in vivo at 75 mg/kg: 75 mg/kg intraperitoneal
Method: 6.1 Antiulcerogenic effect on Takagi's restraint-plus-water-immersing ulcer: Groups each comprising 8-26 dd-strain male mice were used. The tests were carried out according to a method of Takagi, et al. [Chem. Pharm. Bull.; 12, 465 (1964)]. Sum of length of diseased parts in the glandular stomach was measured and it was compared with that of control group. The compounds of the present invention or DPH was given intraperitoneally immediately before the restraint and immersion in water.

Wistar-strain male rats = experiment: Antiulcerogenic effect on Shay's ulcer (operative ulcer); type: in vivo; details: 10 times
Method: 6.2. Antiulcerogenic effect on Shay's ulcer (operative ulcer):
Tests were carried out by using groups of rats each comprising 5-10 Wistar-strain male rats according to Shay method [Shay Harry; Gastroenterology,; 5, 43 (1945)]. Ulcers in the anterior stomach were classified on the following basis:
2. 1-5 small ulcers (diameter of less than 3 mm)
3. 6 or more small ulcers or one big ulcer (diameter of more than 3 mm)
4. two or more big ulcers

ddY-strain male mice = experiment: Effect of prolongation of sleeping time (hexobarbital); type: in vivo; details: for change in vivo at 100 mg/kg / change in vivo at 300 mg/kg: Mus musculus, ip; for change in vivo at 100 mg/kg: 100 mg/kg intraperitoneal; for change in vivo at 300 mg/kg: 300 mg/kg intraperitoneal
In short: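 Groups of 10 male ddY mice received compounds intraperitoneally along with intraperitoneal sodium hexobarbital. Loss of righting reflex was timed, and prolongation was measured against control mice.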

[8] = tested on: spontaneously hypertensive rats (SHR); experiment: Antihypertensive effect in spontaneously hypertensive rats; type: in vivo; details: 60 minutes
Method: 8. Antihypertensive effect: Groups of rats each comprising 6-9 spontaneously hypertensive rats (SHR) were used. The compounds of the present invention or DPH was given intraperitoneally. The rate of antihypertension 60 minutes after the administration was determined.

[9] = ip, 1 h, SART stress mice, intraperitoneal 100 mg/kg, 60 minutes
[10] = ip, 1 h, normal mice, intraperitoneal 100 mg/kg, 60 minutes
[11] = po, SART stress mice, peroral 100 mg/kg, average of 30, 60, 90 and 120 minutes
[12] = po, normal mice, peroral 100 mg/kg, average of 30, 60, 90 and 120 minutes
[13] = SART stress mice, intraperitoneal 50 mg/kg, 60 minutes
[14] = SART stress mice, peroral 50 mg/kg, average of 30, 60, 90 and 120 minutes
[15] = normal mice, intraperitoneal 50 mg/kg, 60 minutes
[16] = normal mice, peroral 50 mg/kg, average of 30, 60, 90 and 120 minutes
[17] = po, SART stress mice, average of 30, 60, 90 and 120 minutes
[18] = po, normal mice, average of 30, 60, 90 and 120 minutes

O=C1NC(=O)C(c2cc(O)c(O)c(O)c2)(c2cc(O)c(O)c(O)c2)N1 [Compound 36, 5,5-Bis(3,4,5-trihydroxyphenyl)hydantoin]
LD50 at 72 h ([1]; female): 780 mg/kg | LD50 at 72 h ([1]; male): 820 mg/kg | LD50 at 72 h ([2]; female): 1020 mg/kg | LD50 at 72 h ([2]; male): 1320 mg/kg | Heart rate (SART stress mice; 100 mg/kg/day): 737 ± 65 min⁻¹ | QRS-time (SART stress mice; 100 mg/kg/day): 13.8 ± 1.2 1/1000 sec | Ach-induced contraction of the isolated deodedum (isolated duodenum; 10 mg/kg/day intraperitoneal): 83 ± 8% | Inhibitory effect on spontaneous motor activities (dd-strain male mice [3]; 50 mg/kg intraperitoneal): 37.8% | Inhibitory effect on spontaneous motor activities (dd-strain male mice [3]; 100 mg/kg intraperitoneal): 49.1% | Inhibitory effect on exploratory movements (dd-strain male mice [4]; 50 mg/kg intraperitoneal): 30.6% | Inhibitory effect on exploratory movements (dd-strain male mice [4]; 100 mg/kg intraperitoneal): 36.7% | change in vivo at 100 mg/kg [5, 9]: 180% | change in vivo at 100 mg/kg [5, 10]: 67% | change in vivo at 100 mg/kg [5, 11]: 102% | change in vivo at 100 mg/kg [5, 12]: 49.9% | Analgesic effect [5, 13]: 120.5% | Analgesic effect [5, 14]: 63.3% | Analgesic effect [5, 15]: 44.0% | Analgesic effect [5, 16]: 40.3% | inhibition in vivo at 100 mg/kg ([6]; SART stress mice): 29.4% | inhibition in vivo at 100 mg/kg ([6]; normal mice): 8.2% | inhibition in vivo at 125 mg/kg (dd-strain male mice [7]): 31.2% | Antiulcerogenic effect on Shay's ulcer (operative ulcer) (Wistar-strain male rats; 100 mg/kg intraperitoneal): 30.1% | Antiulcerogenic effect on Shay's ulcer (operative ulcer) (Wistar-strain male rats; 150 mg/kg intraperitoneal): 43.9% | change in vivo at 100 mg/kg (ddY-strain male mice): 11.3% | change in vivo at 300 mg/kg (ddY-strain male mice): 46.7% | Rate of antihypertension ([8]; 150 mg/Kg intraperitoneal): 19.8%

O=C1NC(=O)C(c2ccc(O)cc2)(c2ccc(O)cc2)N1 [Compound 4, 5,5-Bis(4-hydroxyphenyl)hydantoin]
LD50 at 72 h ([1]; female): 980 mg/kg | LD50 at 72 h ([1]; male): 1060 mg/kg | LD50 at 72 h ([2]; female): 1320 mg/kg | LD50 at 72 h ([2]; male): 1370 mg/kg | Heart rate (SART stress mice; 37.5 mg/kg/day): 683 ± 61 min⁻¹ | QRS-time (SART stress mice; 37.5 mg/kg/day): 12.2 ± 0.8 1/1000 sec | Ach-induced contraction of the isolated deodedum (isolated duodenum; 5 mg/kg/day intraperitoneal): 61 ± 16% | Ach-induced contraction of the isolated deodedum (isolated duodenum; 10 mg/kg/day intraperitoneal): 95 ± 10% | Inhibitory effect on spontaneous motor activities (dd-strain male mice [3]; 50 mg/kg intraperitoneal): 42.4% | Inhibitory effect on spontaneous motor activities (dd-strain male mice [3]; 75 mg/kg intraperitoneal): 52.2% | Inhibitory effect on spontaneous motor activities (dd-strain male mice [3]; 100 mg/kg intraperitoneal): 61.4% | Inhibitory effect on exploratory movements (dd-strain male mice [4]; 50 mg/kg intraperitoneal): 30.1% | Inhibitory effect on exploratory movements (dd-strain male mice [4]; 100 mg/kg intraperitoneal): 54.5% | Inhibitory effect on exploratory movements (dd-strain male mice [4]; 125 mg/kg intraperitoneal): 61.3% | change in vivo at 100 mg/kg [5, 9]: 162% | change in vivo at 100 mg/kg [5, 10]: 41.6% | change in vivo at 100 mg/kg [5, 11]: 67.3% | change in vivo at 160 mg/kg [5, 17]: 90.5% | change in vivo at 100 mg/kg [5, 12]: 52.3% | change in vivo at 160 mg/kg [5, 18]: 68.2% | Analgesic effect [5, 13]: 88.2% | Analgesic effect [5, 14]: 56.8% | Analgesic effect [5, 15]: 36.1% | Analgesic effect [5, 16]: 38.8% | inhibition in vivo at 100 mg/kg ([6]; SART stress mice): 33.6% | inhibition in vivo at 100 mg/kg ([6]; normal mice): 4.8% | inhibition in vivo at 25 mg/kg (dd-strain male mice [7]; 25 mg/kg intraperitoneal): 14.2% | inhibition in vivo at 75 mg/kg (dd-strain male mice [7]): 39.1% | inhibition in vivo at 125 mg/kg (dd-strain male mice [7]): 53% | Antiulcerogenic effect on Shay's ulcer (operative ulcer) (Wistar-strain male rats; 25 mg/kg intraperitoneal): 26.4% | Antiulcerogenic effect on Shay's ulcer (operative ulcer) (Wistar-strain male rats; 50 mg/kg intraperitoneal): 38.0% | Antiulcerogenic effect on Shay's ulcer (operative ulcer) (Wistar-strain male rats; 100 mg/kg intraperitoneal): 50.0% | Antiulcerogenic effect on Shay's ulcer (operative ulcer) (Wistar-strain male rats; 150 mg/kg intraperitoneal): 64.8% | Effect of prolongation of sleeping time (ddY-strain male mice; 20 mg/kg intraperitoneal): 37.2% | Effect of prolongation of sleeping time (ddY-strain male mice; 50 mg/kg intraperitoneal): 84.4% | change in vivo at 100 mg/kg (ddY-strain male mice): 124% | Rate of antihypertension ([8]; 100 mg/Kg intraperitoneal): 21.5% | Rate of antihypertension ([8]; 150 mg/Kg intraperitoneal): 34.1% | Rate of antihypertension ([8]; 300 mg/Kg intraperitoneal): 45.7%

COc1ccc(C2(c3ccc(OC)c(Cl)c3)NC(=O)NC2=O)cc1 (stereo not drawn) [Compound 2, 5-(3-chloro-4-methoxyphenyl)-5-(4-methoxyphenyl)hydantoin]
LD50 at 72 h ([1]; female): 920 mg/kg | LD50 at 72 h ([1]; male): 1000 mg/kg | LD50 at 72 h ([2]; female): 1540 mg/kg | LD50 at 72 h ([2]; male): 1600 mg/kg | Heart rate (SART stress mice; 50 mg/kg/day): 698 ± 42 min⁻¹ | QRS-time (SART stress mice; 50 mg/kg/day): 12.9 ± 0.8 1/1000 sec | Ach-induced contraction of the isolated deodedum (isolated duodenum; 10 mg/kg/day intraperitoneal): 80 ± 13% | Inhibitory effect on spontaneous motor activities (dd-strain male mice [3]; 50 mg/kg intraperitoneal): 39.8% | Inhibitory effect on spontaneous motor activities (dd-strain male mice [3]; 100 mg/kg intraperitoneal): 50.1% | Inhibitory effect on spontaneous motor activities (dd-strain male mice [3]; 125 mg/kg intraperitoneal): 56.3% | Inhibitory effect on exploratory movements (dd-strain male mice [4]; 50 mg/kg intraperitoneal): 29.0% | Inhibitory effect on exploratory movements (dd-strain male mice [4]; 100 mg/kg intraperitoneal): 38.8% | Inhibitory effect on exploratory movements (dd-strain male mice [4]; 125 mg/kg intraperitoneal): 47.8% | change in vivo at 100 mg/kg [5, 9]: 139% | change in vivo at 100 mg/kg [5, 10]: 90.7% | change in vivo at 100 mg/kg [5, 11]: 70% | change in vivo at 160 mg/kg [5, 17]: 88.2% | change in vivo at 100 mg/kg [5, 12]: 37.3% | change in vivo at 160 mg/kg [5, 18]: 50.2% | Analgesic effect [5, 13]: 79.6% | Analgesic effect [5, 15]: 54.6% | inhibition in vivo at 100 mg/kg ([6]; SART stress mice): 27.1% | inhibition in vivo at 100 mg/kg ([6]; normal mice): 4.4% | inhibition in vivo at 75 mg/kg (dd-strain male mice [7]): 15.4% | inhibition in vivo at 150 mg/kg (dd-strain male mice [7]; 150 mg/kg intraperitoneal): 36.6% | Antiulcerogenic effect on Shay's ulcer (operative ulcer) (Wistar-strain male rats; 100 mg/kg intraperitoneal): 23.4% | Antiulcerogenic effect on Shay's ulcer (operative ulcer) (Wistar-strain male rats; 150 mg/kg intraperitoneal): 29.3% | change in vivo at 100 mg/kg (ddY-strain male mice): 55.9% | change in vivo at 300 mg/kg (ddY-strain male mice): 248% | Rate of antihypertension ([8]; 150 mg/Kg intraperitoneal): 22.4%
